Source: US7119075B2, “Use of herbal agents for potentiation of bioefficacy of anti infectives” (priority 2003, dated 2006)
Converted amounts (≈) assume the structure as drawn.

Legend:
Gram negative bacteria = assay: organism not typed; type: cell-based; settings: for MIC: read-out: MIC Drug alone
Gram positive bacteria = assay: organism not typed; type: cell-based; settings: read-out: MIC Drug alone
M. tuberculosis = assay: MIC of drugs alone and with bioenhancer (Table 7); type: cell-based; settings: Mycobacterium tuberculosis, Drug alone
Yeast = assay: MIC of drugs alone and with bioenhancer (Table 7); type: cell-based; settings: Saccharomyces cerevisiae; read-out: MIC Drug alone
Filamentous fungi = assay: organism not typed; type: cell-based; settings: read-out: MIC Drug alone
MRSA 450 = assay: microbe, parasite or virus in culture; settings: Staphylococcus aureus
MRSA 15187 = assay: microbe, parasite or virus in culture; settings: Staphylococcus aureus
[1] = system: Candida tropicalis ATCC 750; assay: Inhibitory effect of bioenhancers alone; type: cell-based
[2] = system: Mycobacterium avium ATCC 49601; assay: Inhibitory effect of bioenhancers alone; type: cell-based
[3] = system: Methicillin Resistant Staphylococcus aureus (MRSA); assay: Inhibitory effect of bioenhancers alone; type: cell-based
[4] = system: Aspergillus flavus MTCC 1973; assay: Inhibitory effect of bioenhancers alone; type: cell-based
[5] = system: Mycobacterium intracelluare ATCC 13950; assay: Inhibitory effect of bioenhancers alone; type: cell-based
[6] = system: Aspergillus fumigatus SI-1; assay: Inhibitory effect of bioenhancers alone; type: cell-based
Candida krusei ATCC 6258 = assay: Inhibitory effect of bioenhancers alone; type: cell-based
[7] = system: Mycobacterium tuberculosis 615; assay: Inhibitory effect of bioenhancers alone; type: cell-based
Bacillus cereus RRL 02 = assay: Inhibitory effect of bioenhancers alone; type: cell-based
[8] = system: Pseudomonas aeruginosa ATCC 27583; assay: Inhibitory effect of bioenhancers alone; type: cell-based
[9] = system: Staphylococcus epidermidis ATCC 12228; assay: Inhibitory effect of bioenhancers alone; type: cell-based
[10] = system: Escherichia coli ATCC 25922; assay: Inhibitory effect of bioenhancers alone; type: cell-based
[11] = system: Mycobacterium tuberculosis H37Rv; assay: Inhibitory effect of bioenhancers alone; type: cell-based
[12] = system: Staphylococcus hemolyticus ATCC 29978; assay: Inhibitory effect of bioenhancers alone; type: cell-based
Salmonella typhi AIIMS 2 = assay: Inhibitory effect of bioenhancers alone; type: cell-based
[13] = system: Klebsiella pneumoniae ATCC 75388; assay: Inhibitory effect of bioenhancers alone; type: cell-based
[14] = system: Staphylococcus aureus ATCC 29313; assay: Inhibitory effect of bioenhancers alone; type: cell-based

## CCn1cc(C(=O)O)c(=O)c2cc(F)c(N3CCNCC3)cc21 [Norfloxacin]
Gram negative bacteria; Drug alone
  MIC Drug alone: 0.03 to 64 µg/mL
Gram positive bacteria
  MIC: 0.12 to 32 µg/mL (≈ 0.376 to 100 µM)

## CN[C@H](CC(C)C)C(=O)N[C@H]1C(=O)N[C@@H](CC(N)=O)C(=O)N[C@H]2C(=O)N[C@H]3C(=O)N[C@H](C(=O)N[C@H](C(=O)O)c4cc(O)cc(O)c4-c4cc3ccc4O)[C@H](O)c3ccc(c(Cl)c3)Oc3cc2cc(c3O[C@@H]2O[C@H](CO)[C@@H](O)[C@H](O)[C@H]2O[C@H]2C[C@](C)(N)[C@H](O)[C@H](C)O2)Oc2ccc(cc2Cl)[C@H]1O [Vancomycin]
Gram positive bacteria
  MIC: 0.03 to 8 µg/mL (≈ 0.0207 to 5.52 µM)

## NCC[C@H](O)C(=O)N[C@@H]1C[C@H](N)[C@@H](O[C@H]2O[C@H](CN)[C@@H](O)[C@H](O)[C@H]2O)[C@H](O)[C@H]1O[C@H]1O[C@H](CO)[C@@H](O)[C@H](N)[C@H]1O [Amikacin]
M. tuberculosis
  MIC: 0.5 to 1 µg/mL
Gram negative bacteria
  MIC: 0.12 to 4 µg/mL (≈ 0.205 to 6.83 µM)
Gram positive bacteria
  MIC: 2 to 32 µg/mL (≈ 3.42 to 54.6 µM)

## CC[C@@H](CO)NCCN[C@@H](CC)CO [Ethambutol]
M. tuberculosis
  MIC: 1 to 5 µg/mL

## CC(=O)N1CCN(c2ccc(OCC3COC(Cn4ccnc4)(c4ccc(Cl)cc4Cl)O3)cc2)CC1 (stereo not shown) [Ketoconazole]
Yeast
  MIC: 0.12 to 0.5 µg/mL
Filamentous fungi
  MIC: 0.25 to 2 µg/mL (≈ 0.47 to 3.76 µM)

## O=C(O)c1cn(C2CC2)c2cc(N3CCNCC3)c(F)cc2c1=O [Ciprofloxacin]
M. tuberculosis
  MIC: 0.5 to 1 µg/mL
MRSA 450
  MIC: 64 µg/mL (≈ 193 µM)
Gram negative bacteria
  MIC: 0.03 to 0.5 µg/mL (≈ 0.0905 to 1.51 µM)
MRSA 15187
  MIC: 64 µg/mL (≈ 193 µM)
Gram positive bacteria
  MIC: 0.12 to 32 µg/mL (≈ 0.362 to 96.6 µM)

## 3′,5-Dihydroxy flavone 7-O-β-D-galacturonide-4′-O-β-D-glucopyranoside [pure molecule of Cuminum cyminum]
[1]; conc. 0.2 μg/ml
  inhibitory effect: ++++ (No inhibition)
[1]; conc. 0.8 μg/ml
  inhibitory effect: ++++ (No inhibition)
[1]; conc. 3.12 μg/ml
  inhibitory effect: ++++ (No inhibition)
[1]; conc. 12.5 μg/ml
  inhibitory effect: ++++ (No inhibition)
[1]; conc. 50 μg/ml
  inhibitory effect: ++++ (No inhibition)
[1]; conc. 100 μg/ml
  inhibitory effect: ++++ (No inhibition)
[2]; conc. 0.2 μg/ml
  inhibitory effect: ++++ (No inhibition)
[2]; conc. 0.8 μg/ml
  inhibitory effect: ++++ (No inhibition)
[2]; conc. 3.12 μg/ml
  inhibitory effect: ++++ (No inhibition)
[2]; conc. 12.5 μg/ml
  inhibitory effect: ++++ (No inhibition)
[2]; conc. 50 μg/ml
  inhibitory effect: ++++ (No inhibition)
[2]; conc. 100 μg/ml
  inhibitory effect: ++++ (No inhibition)
[3]; conc. 0.2 μg/ml
  inhibitory effect: ++++ (No inhibition)
[3]; conc. 0.8 μg/ml
  inhibitory effect: ++++ (No inhibition)
[3]; conc. 3.12 μg/ml
  inhibitory effect: ++++ (No inhibition)
[3]; conc. 12.5 μg/ml
  inhibitory effect: ++++ (No inhibition)
[3]; conc. 50 μg/ml
  inhibitory effect: ++++ (No inhibition)
[3]; conc. 100 μg/ml
  inhibitory effect: ++++ (No inhibition)
[4]; conc. 0.2 μg/ml
  inhibitory effect: ++++ (No inhibition)
[4]; conc. 0.8 μg/ml
  inhibitory effect: ++++ (No inhibition)
[4]; conc. 3.12 μg/ml
  inhibitory effect: ++++ (No inhibition)
[4]; conc. 12.5 μg/ml
  inhibitory effect: ++++ (No inhibition)
[4]; conc. 50 μg/ml
  inhibitory effect: ++++ (No inhibition)
[4]; conc. 100 μg/ml
  inhibitory effect: ++++ (No inhibition)
[5]; conc. 0.2 μg/ml
  inhibitory effect: ++++ (No inhibition)
[5]; conc. 0.8 μg/ml
  inhibitory effect: ++++ (No inhibition)
[5]; conc. 3.12 μg/ml
  inhibitory effect: ++++ (No inhibition)
[5]; conc. 12.5 μg/ml
  inhibitory effect: ++++ (No inhibition)
[5]; conc. 50 μg/ml
  inhibitory effect: ++++ (No inhibition)
[5]; conc. 100 μg/ml
  inhibitory effect: ++++ (No inhibition)
[6]; conc. 0.2 μg/ml
  inhibitory effect: ++++ (No inhibition)
[6]; conc. 0.8 μg/ml
  inhibitory effect: ++++ (No inhibition)
[6]; conc. 3.12 μg/ml
  inhibitory effect: ++++ (No inhibition)
[6]; conc. 12.5 μg/ml
  inhibitory effect: ++++ (No inhibition)
[6]; conc. 50 μg/ml
  inhibitory effect: ++++ (No inhibition)
[6]; conc. 100 μg/ml
  inhibitory effect: ++++ (No inhibition)
Candida krusei ATCC 6258; conc. 0.2 μg/ml
  inhibitory effect: ++++ (No inhibition)
Candida krusei ATCC 6258; conc. 0.8 μg/ml
  inhibitory effect: ++++ (No inhibition)
Candida krusei ATCC 6258; conc. 3.12 μg/ml
  inhibitory effect: ++++ (No inhibition)
Candida krusei ATCC 6258; conc. 12.5 μg/ml
  inhibitory effect: ++++ (No inhibition)
Candida krusei ATCC 6258; conc. 50 μg/ml
  inhibitory effect: ++++ (No inhibition)
Candida krusei ATCC 6258; conc. 100 μg/ml
  inhibitory effect: ++++ (No inhibition)
[7]; conc. 0.2 μg/ml
  inhibitory effect: ++++ (No inhibition)
[7]; conc. 0.8 μg/ml
  inhibitory effect: ++++ (No inhibition)
[7]; conc. 3.12 μg/ml
  inhibitory effect: ++++ (No inhibition)
[7]; conc. 12.5 μg/ml
  inhibitory effect: ++++ (No inhibition)
[7]; conc. 50 μg/ml
  inhibitory effect: ++++ (No inhibition)
[7]; conc. 100 μg/ml
  inhibitory effect: ++++ (No inhibition)
Bacillus cereus RRL 02; conc. 0.2 μg/ml
  inhibitory effect: ++++ (No inhibition)
Bacillus cereus RRL 02; conc. 0.8 μg/ml
  inhibitory effect: ++++ (No inhibition)
Bacillus cereus RRL 02; conc. 3.12 μg/ml
  inhibitory effect: ++++ (No inhibition)
Bacillus cereus RRL 02; conc. 12.5 μg/ml
  inhibitory effect: ++++ (No inhibition)
Bacillus cereus RRL 02; conc. 50 μg/ml
  inhibitory effect: ++++ (No inhibition)
Bacillus cereus RRL 02; conc. 100 μg/ml
  inhibitory effect: ++++ (No inhibition)
[8]; conc. 0.2 μg/ml
  inhibitory effect: ++++ (No inhibition)
[8]; conc. 0.8 μg/ml
  inhibitory effect: ++++ (No inhibition)
[8]; conc. 3.12 μg/ml
  inhibitory effect: ++++ (No inhibition)
[8]; conc. 12.5 μg/ml
  inhibitory effect: ++++ (No inhibition)
[8]; conc. 50 μg/ml
  inhibitory effect: ++++ (No inhibition)
[8]; conc. 100 μg/ml
  inhibitory effect: ++++ (No inhibition)
[9]; conc. 0.2 μg/ml
  inhibitory effect: ++++ (No inhibition)
[9]; conc. 0.8 μg/ml
  inhibitory effect: ++++ (No inhibition)
[9]; conc. 3.12 μg/ml
  inhibitory effect: ++++ (No inhibition)
[9]; conc. 12.5 μg/ml
  inhibitory effect: ++++ (No inhibition)
[9]; conc. 50 μg/ml
  inhibitory effect: ++++ (No inhibition)
[9]; conc. 100 μg/ml
  inhibitory effect: ++++ (No inhibition)
[10]; conc. 0.2 μg/ml
  inhibitory effect: ++++ (No inhibition)
[10]; conc. 0.8 μg/ml
  inhibitory effect: ++++ (No inhibition)
[10]; conc. 3.12 μg/ml
  inhibitory effect: ++++ (No inhibition)
[10]; conc. 12.5 μg/ml
  inhibitory effect: ++++ (No inhibition)
[10]; conc. 50 μg/ml
  inhibitory effect: ++++ (No inhibition)
[10]; conc. 100 μg/ml
  inhibitory effect: ++++ (No inhibition)
[11]; conc. 0.2 μg/ml
  inhibitory effect: ++++ (No inhibition)
[11]; conc. 0.8 μg/ml
  inhibitory effect: ++++ (No inhibition)
[11]; conc. 3.12 μg/ml
  inhibitory effect: ++++ (No inhibition)
[11]; conc. 12.5 μg/ml
  inhibitory effect: ++++ (No inhibition)
[11]; conc. 50 μg/ml
  inhibitory effect: ++++ (No inhibition)
[11]; conc. 100 μg/ml
  inhibitory effect: ++++ (No inhibition)
[12]; conc. 0.2 μg/ml
  inhibitory effect: ++++ (No inhibition)
[12]; conc. 0.8 μg/ml
  inhibitory effect: ++++ (No inhibition)
[12]; conc. 3.12 μg/ml
  inhibitory effect: ++++ (No inhibition)
[12]; conc. 12.5 μg/ml
  inhibitory effect: ++++ (No inhibition)
[12]; conc. 50 μg/ml
  inhibitory effect: ++++ (No inhibition)
[12]; conc. 100 μg/ml
  inhibitory effect: ++++ (No inhibition)
Salmonella typhi AIIMS 2; conc. 0.2 μg/ml
  inhibitory effect: ++++ (No inhibition)
Salmonella typhi AIIMS 2; conc. 0.8 μg/ml
  inhibitory effect: ++++ (No inhibition)
Salmonella typhi AIIMS 2; conc. 3.12 μg/ml
  inhibitory effect: ++++ (No inhibition)
Salmonella typhi AIIMS 2; conc. 12.5 μg/ml
  inhibitory effect: ++++ (No inhibition)
Salmonella typhi AIIMS 2; conc. 50 μg/ml
  inhibitory effect: ++++ (No inhibition)
Salmonella typhi AIIMS 2; conc. 100 μg/ml
  inhibitory effect: ++++ (No inhibition)
[13]; conc. 0.2 μg/ml
  inhibitory effect: ++++ (No inhibition)
[13]; conc. 0.8 μg/ml
  inhibitory effect: ++++ (No inhibition)
[13]; conc. 3.12 μg/ml
  inhibitory effect: ++++ (No inhibition)
[13]; conc. 12.5 μg/ml
  inhibitory effect: ++++ (No inhibition)
[13]; conc. 50 μg/ml
  inhibitory effect: ++++ (No inhibition)
[13]; conc. 100 μg/ml
  inhibitory effect: ++++ (No inhibition)
[14]; conc. 0.2 μg/ml
  inhibitory effect: ++++ (No inhibition)
[14]; conc. 0.8 μg/ml
  inhibitory effect: ++++ (No inhibition)
[14]; conc. 3.12 μg/ml
  inhibitory effect: ++++ (No inhibition)
[14]; conc. 12.5 μg/ml
  inhibitory effect: ++++ (No inhibition)
[14]; conc. 50 μg/ml
  inhibitory effect: ++++ (No inhibition)
[14]; conc. 100 μg/ml
  inhibitory effect: ++++ (No inhibition)

## C=CC1=C(C(=O)O)N2C(=O)[C@@H](NC(=O)/C(=N\O)c3csc(N)n3)[C@H]2SC1 [Cefdinir]
Gram negative bacteria
  MIC: 0.25 to 64 µg/mL (≈ 0.632 to 162 µM)
Gram positive bacteria
  MIC: 0.06 to 32 µg/mL (≈ 0.152 to 80.9 µM)
